PubChem BioAssay (NCI)
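Method: 48-hour compound exposure of cells in 96-well plates, five concentrations, linear interpolation of endpoints. GI50 marks 50% less growth. Definition used: TGI = concentration required for complete inhibition of growth.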

Columns and labels:
Assay in all cases: NCI-60 cell line screen, 48 h
SK-MEL-28 melanoma = system: SK-MEL-28 melanoma
SF-539 CNS = system: SF-539 CNS
CCRF-CEM leukemia = system: CCRF-CEM leukemia
SK-MEL-5 melanoma = system: SK-MEL-5 melanoma
NCI-H522 lung = system: NCI-H522 lung
BT-549 breast = system: BT-549 breast
A549 NSCLC = system: A549 NSCLC
NCI/ADR-RES ovarian = system: NCI/ADR-RES ovarian
UACC-62 melanoma = system: UACC-62 melanoma
UO-31 renal = system: UO-31 renal
SW-620 colon = system: SW-620 colon
ACHN renal = system: ACHN renal
MDA-MB-435 = system: MDA-MB-435
OVCAR-4 ovarian = system: OVCAR-4 ovarian
SF-295 CNS = system: SF-295 CNS
NCI-H460 lung = system: NCI-H460 lung
786-0 renal = system: 786-0 renal
NCI-H23 lung = system: NCI-H23 lung
T-47D breast = system: T-47D breast
NCI-H226 lung = system: NCI-H226 lung
COLO 205 colon = system: COLO 205 colon
MOLT-4 leukemia = system: MOLT-4 leukemia
SK-OV-3 ovarian = system: SK-OV-3 ovarian
PC-3 prostate = system: PC-3 prostate
MCF7 breast = system: MCF7 breast
K-562 leukemia = system: K-562 leukemia
SN12C renal = system: SN12C renal
DU-145 prostate = system: DU-145 prostate
RXF 393 renal = system: RXF 393 renal
HS 578T breast = system: HS 578T breast
OVCAR-5 ovarian = system: OVCAR-5 ovarian
SF-268 CNS = system: SF-268 CNS
UACC-257 melanoma = system: UACC-257 melanoma
SNB-19 CNS = system: SNB-19 CNS
SNB-75 CNS = system: SNB-75 CNS
KM12 colon = system: KM12 colon
RPMI-8226 leukemia = system: RPMI-8226 leukemia
HL-60(TB) leukemia = system: HL-60(TB) leukemia
U251 CNS = system: U251 CNS
MALME-3M melanoma = system: MALME-3M melanoma
SK-MEL-2 melanoma = system: SK-MEL-2 melanoma
A498 renal = system: A498 renal
OVCAR-3 ovarian = system: OVCAR-3 ovarian
LOX IMVI melanoma = system: LOX IMVI melanoma
M14 melanoma = system: M14 melanoma
EKVX NSCLC = system: EKVX NSCLC
HCT-15 colon = system: HCT-15 colon
TK-10 renal = system: TK-10 renal
HOP-92 NSCLC = system: HOP-92 NSCLC
MDA-MB-231 breast = system: MDA-MB-231 breast
HT29 colon = system: HT29 colon
IGROV1 ovarian = system: IGROV1 ovarian
OVCAR-8 ovarian = system: OVCAR-8 ovarian

Compound: CN(C)CCCNC(=O)c1cc(NC(=O)c2cc(NC(=O)CCc3c[nH]c4ccccc34)cn2C)cn1C
- GI50 (SK-MEL-28 melanoma): > 100 µM
- TGI (SK-MEL-28 melanoma): > 100 µM
- GI50 (SF-539 CNS): > 100 µM
- TGI (SF-539 CNS): > 100 µM
- GI50 (CCRF-CEM leukemia): > 100 µM
- TGI (CCRF-CEM leukemia): > 100 µM
- GI50 (SK-MEL-5 melanoma): > 100 µM
- TGI (SK-MEL-5 melanoma): > 100 µM
- GI50 (NCI-H522 lung): > 100 µM
- TGI (NCI-H522 lung): > 100 µM
- GI50 (BT-549 breast): > 100 µM
- TGI (BT-549 breast): > 100 µM
- GI50 (A549 NSCLC): > 100 µM
- TGI (A549 NSCLC): > 100 µM
- GI50 (NCI/ADR-RES ovarian): > 100 µM
- TGI (NCI/ADR-RES ovarian): > 100 µM
- GI50 (UACC-62 melanoma): > 100 µM
- TGI (UACC-62 melanoma): > 100 µM
- GI50 (UO-31 renal): > 100 µM
- TGI (UO-31 renal): > 100 µM
- GI50 (SW-620 colon): > 100 µM
- TGI (SW-620 colon): > 100 µM
- GI50 (ACHN renal): > 100 µM
- TGI (ACHN renal): > 100 µM
- GI50 (MDA-MB-435): > 100 µM
- TGI (MDA-MB-435): > 100 µM
- GI50 (OVCAR-4 ovarian): > 100 µM
- TGI (OVCAR-4 ovarian): > 100 µM
- GI50 (SF-295 CNS): > 100 µM
- TGI (SF-295 CNS): > 100 µM
- GI50 (NCI-H460 lung): > 100 µM
- TGI (NCI-H460 lung): > 100 µM
- GI50 (786-0 renal): > 100 µM
- TGI (786-0 renal): > 100 µM
- GI50 (NCI-H23 lung): > 100 µM
- TGI (NCI-H23 lung): > 100 µM
- GI50 (T-47D breast): > 100 µM
- TGI (T-47D breast): > 100 µM
- GI50 (NCI-H226 lung): > 100 µM
- TGI (NCI-H226 lung): > 100 µM
- GI50 (COLO 205 colon): > 100 µM
- TGI (COLO 205 colon): > 100 µM
- GI50 (MOLT-4 leukemia): > 100 µM
- TGI (MOLT-4 leukemia): > 100 µM
- GI50 (SK-OV-3 ovarian): > 100 µM
- TGI (SK-OV-3 ovarian): > 100 µM
- GI50 (PC-3 prostate): > 100 µM
- TGI (PC-3 prostate): > 100 µM
- GI50 (MCF7 breast): > 100 µM
- TGI (MCF7 breast): > 100 µM
- GI50 (K-562 leukemia): > 100 µM
- TGI (K-562 leukemia): > 100 µM
- GI50 (SN12C renal): > 100 µM
- TGI (SN12C renal): > 100 µM
- GI50 (DU-145 prostate): > 100 µM
- TGI (DU-145 prostate): > 100 µM
- GI50 (RXF 393 renal): > 100 µM
- TGI (RXF 393 renal): > 100 µM
- GI50 (HS 578T breast): > 100 µM
- TGI (HS 578T breast): > 100 µM
- GI50 (OVCAR-5 ovarian): > 100 µM
- TGI (OVCAR-5 ovarian): > 100 µM
- GI50 (SF-268 CNS): > 100 µM
- TGI (SF-268 CNS): > 100 µM
- GI50 (UACC-257 melanoma): > 100 µM
- TGI (UACC-257 melanoma): > 100 µM
- GI50 (SNB-19 CNS): > 100 µM
- TGI (SNB-19 CNS): > 100 µM
- GI50 (SNB-75 CNS): > 100 µM
- TGI (SNB-75 CNS): > 100 µM
- GI50 (KM12 colon): > 100 µM
- TGI (KM12 colon): > 100 µM
- GI50 (RPMI-8226 leukemia): > 100 µM
- TGI (RPMI-8226 leukemia): > 100 µM
- GI50 (HL-60(TB) leukemia): > 100 µM
- TGI (HL-60(TB) leukemia): > 100 µM
- GI50 (U251 CNS): > 100 µM
- TGI (U251 CNS): > 100 µM
- GI50 (MALME-3M melanoma): > 100 µM
- TGI (MALME-3M melanoma): > 100 µM
- GI50 (SK-MEL-2 melanoma): > 100 µM
- TGI (SK-MEL-2 melanoma): > 100 µM
- GI50 (A498 renal): > 100 µM
- TGI (A498 renal): > 100 µM
- GI50 (OVCAR-3 ovarian): > 100 µM
- TGI (OVCAR-3 ovarian): > 100 µM
- GI50 (LOX IMVI melanoma): > 100 µM
- TGI (LOX IMVI melanoma): > 100 µM
- GI50 (M14 melanoma): > 100 µM
- TGI (M14 melanoma): > 100 µM
- GI50 (EKVX NSCLC): > 100 µM
- TGI (EKVX NSCLC): > 100 µM
- GI50 (HCT-15 colon): > 100 µM
- TGI (HCT-15 colon): > 100 µM
- GI50 (TK-10 renal): > 100 µM
- TGI (TK-10 renal): > 100 µM
- GI50 (HOP-92 NSCLC): 72.8 µM
- TGI (HOP-92 NSCLC): > 100 µM
- GI50 (MDA-MB-231 breast): > 100 µM
- TGI (MDA-MB-231 breast): > 100 µM
- GI50 (HT29 colon): > 100 µM
- TGI (HT29 colon): > 100 µM
- GI50 (IGROV1 ovarian): > 100 µM
- TGI (IGROV1 ovarian): > 100 µM
- GI50 (OVCAR-8 ovarian): > 100 µM
- TGI (OVCAR-8 ovarian): > 100 µM
